Measured values taken from patent US4333938A, “Imino derivatives of 5-aminobenzodioxole-1,3 which are useful as medicaments” (Laboratoires Sarget, priority 1979, dated 1982).
Values joined by “and” are separate entries in the source; they are usually repeats but may differ in a detail not shown here. Equal entries are not always repeated.

What was measured:
[1] = test system: carrageenan-induced granulomas; test: activity on carrageenan-induced granulomas; type: in vivo, Male Wistar rats; conditions: for ED50: Rattus norvegicus, 24 h, dose which protects 50% of the animals to the extent of 30% with respect to wet weight of the granuloma, read-out: AD50 (the source's name)
Method: Male Wistar rats weighing 130 to 150 grams were given a subcutaneous injection in the central part of the skin of the back of 0.5 ml of an aqueous suspension of carrageenan. Two doses of the test substance are administered, one 30 minutes before and the other 6 hours after carrageenan. At the end of 24 hours the rats were sacrificed and the granulomas were removed and weighed before and after drying for 24 hours at 50° C. The difference in weight of the granulomas wet and dry represents the exudate
These AD50 are respectively 175(142-215) and 175(150-205) mg/kg.

[2] = oral toxicity (mortality) in the mouse; conditions: in vivo, Swiss mice
Method: (§1) The percentages of mortality produced by the compounds of this invention when administered orally to Swiss mice are shown in Table 1. The animals, free from specific pathogenic organisms were housed in an air conditioned room for 24 to 48 hours before the start of the experiment. They were separated into groups of 5 males and 5 females. The materials were administered to animals which had been fasted for 24 hours by means of a gastric tube in suspension in a 6% thickened julep using a volume equivalent to 0.1 ml per 10 g of body weight. […] They remained under observation for two weeks before being sacrificed and autopsied.

[3] = oral toxicity (mortality) in the Wistar rat; type: in vivo; conditions: in vivo, 3000 mg/kg
Method: as §1
The toxicities of the compounds of Examples 2 and 3 were determined in the Wistar rat. The protocol which was followed was the same as that described for the mice, except that the compounds were administered in a volume equivalent to 0.5 ml per 100 g of body weight of rat. […] The product of Example 3 produced no mortality at 2000 mg/kg and 20% mortality at 3000 mg/kg.

## Cc1ccc(C=Nc2ccc3c(c2)OCO3)s1 [Example 2, N-(5-methyl-2-thienylidene)-5-aminobenzodioxole-1,3]
[1]; 100 mg/kg administered twice
  Exudate, % activity: 31%
  Exudate, % animals 30% protected: 62%
[1]; 150 mg/kg administered twice
  Exudate, % animals 30% protected: 25% and 14%
  Weight of dry granuloma, % animals 30% protected: 25% and 14%
  Weight of wet granuloma, % animals 30% protected: 25% and 14%
[1]; 200 mg/kg administered twice
  Exudate, % activity: 39%
  Exudate, % animals 30% protected: 75%
  Weight of dry granuloma, % activity: 41% and 22%
  Weight of dry granuloma, % animals 30% protected: 75% and 50%
  Weight of wet granuloma, % activity: 39% and 24%
  Weight of wet granuloma, % animals 30% protected: 75% and 50%
[1]; 300 mg/kg administered twice
  Exudate, % activity: 18%
  Exudate, % animals 30% protected: 2%
  Weight of dry granuloma, % activity: 9%
  Weight of dry granuloma, % animals 30% protected: 25%
  Weight of wet granuloma, % activity: 18%
  Weight of wet granuloma, % animals 30% protected: 25%
[1]
  ED50: 175 mg/kg
[2]; 750 mg/kg
  mortality at 336 h: 10%
[2]; 1000 mg/kg
  mortality at 336 h: 20%
[2]; 1250 mg/kg
  mortality at 336 h: 0%
[2]; 1500 mg/kg
  mortality at 336 h: 60%

## C(=Nc1ccc2c(c1)OCO2)c1cccnc1 [Example 3, N-(3-pyridylidene)-5-aminobenzodioxole-1,3]
[1]; 100 mg/kg administered twice
  Exudate, % activity: 15% and 25%
  Exudate, % animals 30% protected: 25% and 37%
  Weight of dry granuloma, % activity: 12% and 22%
  Weight of wet granuloma, % activity: 15% and 25%
  Weight of wet granuloma, % animals 30% protected: 25% and 37%
[1]; 200 mg/kg administered twice
  Exudate, % activity: 27% and 34% and 38%
  Weight of dry granuloma, % activity: 27% and 32% and 33%
  Weight of wet granuloma, % activity: 27% and 33% and 34%
[1]; 250 mg/kg administered twice
  Exudate, % activity: 36%
  Exudate, % animals 30% protected: 75%
  Weight of dry granuloma, % activity: 33%
  Weight of dry granuloma, % animals 30% protected: 62%
  Weight of wet granuloma, % activity: 36%
  Weight of wet granuloma, % animals 30% protected: 75%
[1]; 300 mg/kg administered twice
  Exudate, % activity: 35% and 43%
  Exudate, % animals 30% protected: 87% and 75%
  Weight of dry granuloma, % activity: 37% and 41%
  Weight of dry granuloma, % animals 30% protected: 62% and 75%
  Weight of wet granuloma, % activity: 35% and 43%
  Weight of wet granuloma, % animals 30% protected: 87% and 75%
[1]
  ED50: 175 mg/kg
[2]; 500 mg/kg
  mortality at 336 h: 0%
[2]; 1000 mg/kg
  mortality at 336 h: 10%
[2]; 2000 mg/kg
  mortality at 336 h: 100%
[3]
  mortality at 336 h: 20%
